ChEMBL document CHEMBL1149886, “Natural and non-natural prenylated chalcones: synthesis, cytotoxicity and anti-oxidative activity” (Bioorg Med Chem, 2008)

Columns and labels:
[1] = Antioxidant activity assessed as trolox equivalent at 0.25 to 1.5 uM by ORAC-fluorescein assay; format: functional
[2] = test system: HeLa; assay: Cytotoxicity against human HeLa cells by MTT assay; format: functional, cell-based
[3] = Antioxidant activity assessed as trolox equivalent at 0.1 to 1 uM by ORAC-fluorescein assay; format: functional
[4] = Antioxidant activity assessed as trolox equivalent at 0.1 to 1.5 uM by ORAC-fluorescein assay; format: functional
[5] = Antioxidant activity assessed as trolox equivalent at 0.2 to 0.6 uM by ORAC-fluorescein assay; format: functional
[6] = Antioxidant activity assessed as trolox equivalent at 0.4 to 1 uM by ORAC-fluorescein assay; format: functional
[7] = Antioxidant activity assessed as trolox equivalent at 0.5 to 2.0 uM by ORAC-fluorescein assay; format: functional
[8] = Antioxidant activity assessed as trolox equivalent at 0.3 to 1 uM by ORAC-fluorescein assay; format: functional

Structure (SMILES)	Activity [1]	IC50 [2]	other results
COc1cc(O)c(C(=O)/C=C/c2ccc(O)cc2)c(O)c1CC=C(C)C [XANTHOGALENOL]	1.8	28.3 µM	–
COc1cc(O)c(CC=C(C)C)c(O)c1C(=O)/C=C/c1cc(O)cc(O)c1	–	3.2 µM	Activity [3]: 2.9
COc1cc(O)c(CC=C(C)C)c(O)c1C(=O)/C=C/c1ccccc1O	2.3	5.9 µM	–
COc1cc(O)c(CC=C(C)C)c(O)c1C(=O)/C=C/c1ccc(O)c(O)c1	–	2.5 µM	Activity [3]: 3.1
COc1cc(OC)c(C(=O)/C=C/c2ccc(O)cc2)c(O)c1CC=C(C)C	–	11.8 µM	Activity [4]: 3.8
O=c1c(O)c(-c2ccc(O)c(O)c2)oc2cc(O)cc(O)c12	–	–	Activity [5]: 10.5
O=C(O)/C=C/c1ccc(O)cc1	–	–	Activity [6]: 4.51
COc1cc(O)c(C(=O)/C=C/c2ccc(O)cc2)c(OC)c1CC=C(C)C	1.5	25.6 µM	–
COc1cc(O)c(CC=C(C)C)c(O)c1C(=O)/C=C/c1cccc(O)c1	2.7	4.8 µM	–
COc1ccc(/C=C/C(=O)c2c(OC)cc(O)c(CC=C(C)C)c2O)cc1OC	–	17.1 µM	Activity [7]: 0.9
CC(C)=CCc1c(O)cc(O)c(C(=O)/C=C/c2ccc(O)cc2)c1O [DEMETHYLXANTHOHUMOL]	3.8	16.5 µM	–
COc1cc(O)c(CC=C(C)C)c(O)c1C(=O)/C=C/c1ccc(O)cc1 [XANTHOHUMOL]	2.3	9.4 µM	–
COc1cc(/C=C/C(=O)O)ccc1O	–	–	Activity [8]: 4.47
COc1cc(O)c(CC=C(C)C)c(O)c1C(=O)/C=C/c1cc(O)c(O)c(O)c1	–	30.3 µM	Activity [3]: 1.1
COc1cc(O)cc(O)c1C(=O)/C=C/c1ccc(O)cc1 [HELICHRYSETIN]	–	5.2 µM	Activity [3]: 4.4
COc1cc(O)cc(O)c1C(=O)/C=C/c1ccc(O)c(O)c1	3	14.8 µM	–
